This assay concerns P388 leukemia ip, CD2F1 mice, survival T/C. Nature of the assay: NCI In Vivo Anticancer Drug Screen. Data for tumor model P388 Leukemia (intraperitoneal) in CD2F1 (CDF1) mice. The note with it: endpoint: median survival time, higher = longer survival. The procedure, abridged:
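Mice carrying the transplanted tumor received test compound or vehicle. Survival was recorded in each group, and the value is the treated-group measurement divided by that of the vehicle-treated control group.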

Where [1] appears, read: dose: 50.0 mg/kg/injection, schedule: Q01DX009 (ip), vehicle: saline with Tween-80.
Where [2] appears, read: dose: 100.0 mg/kg/injection, schedule: Q01DX009 (ip), vehicle: saline with Tween-80.
Setting [3] is: dose: 200.0 mg/kg/injection, schedule: Q01DX009 (ip), vehicle: saline with Tween-80.
[4] abbreviates: dose: 100.0 mg/kg/injection, schedule: Q01DX001 (ip), vehicle: saline.
Where [5] appears, read: dose: 200.0 mg/kg/injection, schedule: Q01DX001 (ip), vehicle: saline.
The mark [6] stands for this setting: dose: 50.0 mg/kg/injection, schedule: Q01DX005 (ip), vehicle: Klucel (hydroxypropylcellulose) (HPC).
[7] abbreviates: dose: 100.0 mg/kg/injection, schedule: Q01DX005 (ip), vehicle: Klucel (hydroxypropylcellulose) (HPC).
Setting [8] is: dose: 200.0 mg/kg/injection, schedule: Q01DX005 (ip), vehicle: Klucel (hydroxypropylcellulose) (HPC).
[9] abbreviates: dose: 50.0 mg/kg/injection, schedule: Q01DX005 (ip), vehicle: saline with Tween-80.
The mark [10] stands for this setting: dose: 100.0 mg/kg/injection, schedule: Q01DX005 (ip), vehicle: saline with Tween-80.
Where [11] appears, read: dose: 200.0 mg/kg/injection, schedule: Q01DX005 (ip), vehicle: saline with Tween-80.
[12] abbreviates: dose: 50.0 mg/kg/injection, schedule: Q01DX009 (ip), vehicle: Klucel (hydroxypropylcellulose) (HPC).
The mark [13] stands for this setting: dose: 100.0 mg/kg/injection, schedule: Q01DX009 (ip), vehicle: Klucel (hydroxypropylcellulose) (HPC).
The mark [14] stands for this setting: dose: 200.0 mg/kg/injection, schedule: Q01DX009 (ip), vehicle: Klucel (hydroxypropylcellulose) (HPC).

Where “and” joins values, the source holds several entries; their conditions need not be identical. Equal entries are not always repeated. Toxic doses and inconclusive results are not listed.

In the case of `O=N[O-].[Co].[NH2-].[NH2-].[NH2-].[NH2-].[NH2-]`, the T/C runs as follows: (dose: 12.5 mg/kg/injection, schedule: Q01DX009 (ip), vehicle: saline) 90 % of control; (dose: 25.0 mg/kg/injection, schedule: Q01DX009 (ip), vehicle: saline) 95 % of control; (dose: 50.0 mg/kg/injection, schedule: Q01DX009 (ip), vehicle: saline) 95 % of control.
`O=c1[nH]cnc2ncnn12`: the T/C (dose: 25.0 mg/kg/injection, schedule: Q01DX009 (ip), vehicle: suspension in saline) was 97 % of control; the T/C (dose: 50.0 mg/kg/injection, schedule: Q01DX009 (ip), vehicle: suspension in saline) was 93 % of control; the T/C (dose: 200.0 mg/kg/injection, schedule: Q01DX009 (ip), vehicle: suspension in saline) was 90 % of control.
Turning to `O=C(CC1C2CC3CC(C2)CC1C3)C1C2CC3CC(C2)CC1C3` (stereo unspecified), the T/C reads like this: under setting [1], 97 % of control; under setting [2], 97 % of control; under setting [3], 97 % of control.
For the molecule `NS(=O)(=O)c1ccc(N2C(=S)N(c3ccccc3)C(=Nc3ccccc3)C2=Nc2ccccc2)cc1`, the T/C reads like this: (dose: 50.0 mg/kg/injection, schedule: Q01DX005 (ip), vehicle: Klucel + Tween-80) 96 % of control; (dose: 100.0 mg/kg/injection, schedule: Q01DX005 (ip), vehicle: Klucel + Tween-80) 105 % of control; (dose: 200.0 mg/kg/injection, schedule: Q01DX005 (ip), vehicle: Klucel + Tween-80) 89 % of control.
Regarding `C[CH2][Sn]([CH2]C)[O][Sn]([Cl])([CH2]C)[CH2]C`, the T/C reads like this: (dose: 3.12 mg/kg/injection, schedule: Q01DX005 (ip), vehicle: Klucel (hydroxypropylcellulose) (HPC)) 116 % of control; (dose: 6.25 mg/kg/injection, schedule: Q01DX005 (ip), vehicle: Klucel (hydroxypropylcellulose) (HPC)) 118 % of control and 121 % of control; (dose: 12.5 mg/kg/injection, schedule: Q01DX005 (ip), vehicle: Klucel (hydroxypropylcellulose) (HPC)) 104 % of control and 121 % of control; (dose: 25.0 mg/kg/injection, schedule: Q01DX005 (ip), vehicle: Klucel (hydroxypropylcellulose) (HPC)) 120 % of control.
As to `Cc1ccc2c(c1)C(=S)NC(=O)C2`, the T/C (dose: 12.5 mg/kg/injection, schedule: Q01DX009 (ip), vehicle: distilled water + Tween-80) is 87 % of control; the T/C (dose: 50.0 mg/kg/injection, schedule: Q01DX009 (ip), vehicle: distilled water + Tween-80) is 93 % of control; the T/C (dose: 100.0 mg/kg/injection, schedule: Q01DX009 (ip), vehicle: distilled water + Tween-80) is 91 % of control; the T/C (dose: 200.0 mg/kg/injection, schedule: Q01DX009 (ip), vehicle: distilled water + Tween-80) is 95 % of control.
As to `C1=NC(c2ccccc2)C(/C=C/c2ccccc2)N=C1c1ccccc1` (stereo unspecified), the T/C by setting is: under setting [4], 96 % of control; under setting [5], 93 % of control; (dose: 400.0 mg/kg/injection, schedule: Q01DX001 (ip), vehicle: saline) 86 % of control.
As for `CCC(C)C(NC(=O)OC(C)(C)C)C(=O)O` (stereo unspecified), the T/C by setting is: under setting [6], 103 % of control; under setting [7], 100 % of control; under setting [8], 100 % of control.
For `CCOC(=O)N1C(C)C2C=CC1C(S(=O)(=O)c1ccccc1)C2` (stereo unspecified), the T/C is 97 % of control under setting [6], 102 % of control under setting [7] and 97 % of control under setting [8].
`O=C(c1ccccc1)[C@@]12COc3ccccc3[C@@H]1ON=C2c1ccccc1`: the T/C by setting is: under setting [6], 89 % of control; under setting [7], 88 % of control; under setting [8], 91 % of control.
Turning to `CCOC(=O)C(C)(Br)C(=O)OCC`, the T/C is 118 % of control (dose: 25.0 mg/kg/injection, schedule: Q01DX009 (ip), vehicle: saline with Tween-80); 109 % of control under setting [1]; 109 % of control under setting [2].
Consider `Clc1ccc2c(c1)Oc1ccccc1C=N2`, for which the T/C reads like this: under setting [1], 107 % of control; under setting [2], 98 % of control; under setting [3], 96 % of control.
Consider `Cc1ccc2c(c1)CCCc1c-2nn(-c2ccccc2)c1-c1ccc(Cl)cc1`, for which the T/C was 86 % of control under setting [9], 92 % of control under setting [10] and 90 % of control under setting [11].
As for `CC(C)CCCCCCCCCCCCC(O)CC(=O)O` (stereo unspecified), the T/C runs as follows: (dose: 8.75 mg/kg/injection, schedule: Q01DX005 (ip), vehicle: Klucel + Tween-80) 92 % of control; (dose: 17.5 mg/kg/injection, schedule: Q01DX005 (ip), vehicle: Klucel + Tween-80) 86 % of control; (dose: 35.0 mg/kg/injection, schedule: Q01DX005 (ip), vehicle: Klucel + Tween-80) 95 % of control.
Turning to `CS(=O)(=O)OCCC[Se]Cc1ccccc1C[Se]CCCOS(C)(=O)=O`, the T/C (dose: 60.0 mg/kg/injection, schedule: Q01DX005 (ip), vehicle: saline with Tween-80) is 93 % of control and the T/C (dose: 120.0 mg/kg/injection, schedule: Q01DX005 (ip), vehicle: saline with Tween-80) is 91 % of control.
`CC1C(O)C(C)C(c2ccccc2)N(C)C1c1ccccc1` (stereo unspecified): the T/C is, setting by setting: under setting [9], 100 % of control; under setting [10], 106 % of control; under setting [11], 106 % of control.
Regarding `O=C(NCCCCCCNC(=O)c1ccccc1)c1ccccc1`, the T/C under setting [6] was 100 % of control and 90 % of control; the T/C under setting [7] is 107 % of control and 86 % of control; the T/C under setting [8] is 89 % of control and 90 % of control.
Turning to `CCOC(=O)N1N=C(c2ccccc2)OC2(N3CCCC3)CCC(C(C)(C)C)CC12` (stereo unspecified), the T/C is, setting by setting: under setting [6], 89 % of control; under setting [7], 96 % of control; under setting [8], 96 % of control.
Take `CCOP(=O)(Cc1cc(=O)oc2cc(OC)ccc12)OCC`: the T/C is, setting by setting: under setting [4], 101 % of control; under setting [5], 100 % of control.
Regarding `COc1cc2c(cc1O)C(=O)CCC2`, the T/C under setting [12] was 102 % of control, the T/C under setting [13] is 103 % of control and the T/C under setting [14] is 104 % of control.
Consider `CCC(C)(C)C(=O)O`, for which the T/C was 100 % of control under setting [2] and 100 % of control under setting [3].
Consider `CCCOc1c(C)cc(C(=O)CCN2CCOCC2)cc1Cl`, for which the T/C was 113 % of control under setting [1], 112 % of control under setting [2] and 99 % of control under setting [3].
Turning to `O=C1NC(=O)C2C3C=CC(C12)C1C2CCOC2C31` (stereo unspecified), the T/C was 104 % of control under setting [9], 100 % of control under setting [10] and 99 % of control under setting [11].
Turning to `C=C(Cl)CN(CCCC(=O)O)c1ccccc1`, the T/C by setting is: (dose: 100.0 mg/kg/injection, schedule: Q04DX003 (ip), vehicle: other) 100 % of control; (dose: 200.0 mg/kg/injection, schedule: Q04DX003 (ip), vehicle: other) 109 % of control; (dose: 400.0 mg/kg/injection, schedule: Q04DX003 (ip), vehicle: other) 90 % of control.
Consider `COC(=O)CC(O)(CCCC(C)(C)O)C(=O)OC1C(OC)=CC23CCCN2CCc2cc4c(cc2C13)OCO4` (stereo unspecified) (tested in a mixture with another compound), for which the T/C reads like this: (dose: 0.5 mg/kg/injection, schedule: Q01DX009 (ip), vehicle: saline with Tween-80) 153 % of control; (dose: 1.0 mg/kg/injection, schedule: Q01DX009 (ip), vehicle: saline with Tween-80) 201 % of control; (dose: 2.0 mg/kg/injection, schedule: Q01DX009 (ip), vehicle: saline with Tween-80) 206 % of control.
Consider `COC(=O)C(N)=NCC(C)NC(=O)c1ccccc1` (stereo unspecified), for which the T/C is 99 % of control under setting [12], 101 % of control under setting [13] and 100 % of control under setting [14].
With `Cc1cc2[nH]c3ccccc3n2c(=O)c1N=Nc1ccccc1`, the T/C (dose: 87.5 mg/kg/injection, schedule: Q04DX002 (ip), vehicle: Klucel (hydroxypropylcellulose) (HPC)) was 101 % of control; the T/C (dose: 175.0 mg/kg/injection, schedule: Q04DX002 (ip), vehicle: Klucel (hydroxypropylcellulose) (HPC)) is 92 % of control; the T/C (dose: 350.0 mg/kg/injection, schedule: Q04DX002 (ip), vehicle: Klucel (hydroxypropylcellulose) (HPC)) is 99 % of control.
Regarding `Cc1cc(=O)oc2c(-c3ccccc3)nnc(Cl)c12`, the T/C by setting is: (dose: 60.0 mg/kg/injection, schedule: Q01DX005 (ip), vehicle: Klucel (hydroxypropylcellulose) (HPC)) 98 % of control; (dose: 120.0 mg/kg/injection, schedule: Q01DX005 (ip), vehicle: Klucel (hydroxypropylcellulose) (HPC)) 96 % of control; (dose: 240.0 mg/kg/injection, schedule: Q01DX005 (ip), vehicle: Klucel (hydroxypropylcellulose) (HPC)) 95 % of control.
With `CC(=NCCN=C(C)c1ccccc1O)c1ccccc1O.[Cu]`, the T/C is 105 % of control under setting [1], 99 % of control under setting [2] and 89 % of control under setting [3].
